# Assay results taken from paper PMC6238727 (2018).
# “Also recorded” adds a separate entry of the source.
# Assays:
# Thrombin [1] = assay: Recombinant human Thrombin at 5U/ml
# Neutrophil elastase = Neutrophil elastase at 30 nM; conditions: human, up to 12 min
# [2] = human tissue homogenate (healthy and fibrotic lung tissue)
# MMP-2 [3] = assay: Recombinant human catalytic domain MMP-2 at 30nM
# MMP-13 [4] = assay: Recombinant human catalytic domain MMP-13 at 30nM
# plasmin [5] = assay: plasmin
# [6] = healthy (homogenised) human lung tissue
# thrombin [7] = assay: thrombin (Sigma Aldrich) (5 U ml^–1) in MMP buffer (10 mM CaCl2, Tris-HCl, NaCl, pH 7.5); conditions: human, up to 60 min
# MMP = assay: incubation with MMP (which MMP is not given); conditions: up to 10 min
# Plasmin [8] = assay: Plasmin (Sigma Aldrich) (30 nM) in MMP buffer; conditions: up to 60 min
# MMP-13 [9] = assay: recombinant MMP enzymes (active domains), 30 nM, in MMP buffer; conditions: up to 60 min
# [10] = excised human carotid (atherosclerotic) plaque, sliced in half lengthwise, in a well with probe solution; conditions: up to 60 min
# MMP-9 = assay: recombinant MMP enzymes (active domains), 30 nM, in MMP buffer; conditions: human, up to 60 min
# Factor Xa = Factor Xa (Sigma Aldrich) (500 nM) in MMP buffer; conditions: up to 60 min
# MMP-9 + Thrombin = MMP-9 + Thrombin together in MMP buffer; conditions: human, up to 60 min
# MMP-2 [11] = assay: recombinant MMP enzymes (active domains), 30 nM, in MMP buffer; conditions: up to 60 min
# [12] = platelet rich plasma (PRP) collected from the LPS murine model
# [13] = lavage fluid collected from the LPS murine model
substance,measurement,setting,value
-G-P-K-G-Ile-K-G-,not cleaved,Thrombin [1],Thrombin did not cleave any of the sequences
same,cleaved bond,Neutrophil elastase,I-K
-G-P-K-G-L-K-G-,cleaved bond,[2],G-L
same,cleaved bond,MMP-2 [3],G-L
same,not cleaved,Thrombin [1],not cleaved with Thrombin
same,cleaved bond,MMP-13 [4],G-L
same,not cleaved,neutrophil lysate,not cleaved with Neutrophil lysate
same,not cleaved,Neutrophil elastase,stable to Elastase
same,cleaved bond,plasmin [5],K-G
-P-Cha-G-M-F-G-,not cleaved,Thrombin [1],Thrombin did not cleave any of the sequences
same,not cleaved,Neutrophil elastase,remained intact
-P-Cha-G-M-H-G-,not cleaved,Thrombin [1],Thrombin did not cleave any of the sequences
same,not cleaved,Neutrophil elastase,remained intact
-P-Cha-G-M-K-G-,not cleaved,Thrombin [1],Thrombin did not cleave any of the sequences
same,not cleaved,Neutrophil elastase,remained intact
-P-Cha-G-M-K-ßA-G-,not cleaved,Thrombin [1],Thrombin did not cleave any of the sequences
same,not cleaved,Neutrophil elastase,remained intact
-P-Cha-G-M-W-G-,not cleaved,Thrombin [1],Thrombin did not cleave any of the sequences
same,not cleaved,Neutrophil elastase,remained intact
-P-Cha-G-M-Y(Me)-G-,not cleaved,Thrombin [1],Thrombin did not cleave any of the sequences
same,not cleaved,Neutrophil elastase,remained intact
-P-Cha-G-M-Y-G-,not cleaved,Thrombin [1],Thrombin did not cleave any of the sequences
same,not cleaved,Neutrophil elastase,remained intact
-P-F-G-Ile-K-ßA-,not cleaved,Thrombin [1],Thrombin did not cleave any of the sequences
same,cleaved bond,Neutrophil elastase,I-K
-P-F-G-L-K-ßA-,not cleaved,Thrombin [1],Thrombin did not cleave any of the sequences
same,not cleaved,Neutrophil elastase,remained intact
-P-F-G-M-K-ßA-,not cleaved,Thrombin [1],Thrombin did not cleave any of the sequences
same,not cleaved,Neutrophil elastase,remained intact
-P-F-G-Nle-K-ßA-,cleaved bond,[2],G-Nle
same,cleaved bond,MMP-2 [3],G-Nle
same,not cleaved,Thrombin [1],not cleaved with Thrombin
same,cleaved bond,MMP-13 [4],G-Nle
same,not cleaved,neutrophil lysate,not cleaved with Neutrophil lysate
same,not cleaved,Neutrophil elastase,stable to Elastase
same,not cleaved,plasmin [5],totally plasmin resistant
PFGNleKA attached to the hydrophilic tail -[PEG2-(D)K]3-NH2,not cleaved,[6],good solubility and stability as confirmed by MALDI TOF MS and HPLC analysis
–NleWP(D)RGWR(D)L– | –PFGNleKβA– | –K-PEG2–,not cleaved,thrombin [7],not activated by their target enzymes
–NleWPRGWR(D)L– | –PFG(D)NleKβA– | –K-PEG2–,not cleaved,MMP,not activated by their target enzymes
–NleWPRGWR(D)L– | –PFGNleKβA– | –K-PEG2–,not cleaved,Plasmin [8],completely plasmin and Factor Xa resistant
same,cleaved bond,MMP-13 [9],Gly-Nle
same,cleaved bond,[10],Arg-Gly; also recorded: Gly-Nle
same,cleaved bond,MMP-9,Gly-Nle
same,not cleaved,Factor Xa,completely plasmin and Factor Xa resistant
same,cleaved bond,thrombin [7],Arg-Gly
same,cleaved bond,MMP-9 + Thrombin,Arg-Gly; also recorded: Gly-Nle
same,cleaved bond,MMP-2 [11],Gly-Nle
same,not cleaved,[12],not cleaved by murine proteolytic (MMP and Thrombin) enzymes
same,not cleaved,[13],not cleaved by murine proteolytic (MMP and Thrombin) enzymes
